≈ marks a conversion by molar mass, not a printed value.
What was measured:
[1] = system: AD124567 (Pdr5p-overexpressing); assay: Disk drug susceptibility assay of chemosensitisation to fluconazole; format: cell-based, S. cerevisiae; conditions: 120 μg/ml fluconazole, 47 nanomole peptide on disk
Experimental: (A) Checkerboard drug susceptibility assay of AD124567 in the presence of the indicated concentrations of fluconazole and KN20. (B) Disk drug susceptibility assay of AD124567. This assay was conducted, as described in Materials and methods for example 4, in the absence or presence of fluconazole (120 μg/ml), and in the presence of (1) KN0 (47 nanomole), (2) KN20 (47 nanomole) or (0) control amounts of DMSO applied to disks
(§1) Drug susceptibility was measured using disk assays on CSM-URA plates (containing 1.5% w/v agar). Plates were seeded with yeast cells suspended in top agar (5 ml, 10^5 cells/ml). For the uracil-dependent parental strain, agar was supplemented with 0.02% uridine. Five microliters of drug solution or solvent control were spotted onto sterile Whatman paper disks on the top agar. […]

AD1002 = assay: as above; format: cell-based, S. cerevisiae; conditions: 5 μg/ml fluconazole, 12 nanomole peptide on disk
Experimental: (A) Checkerboard drug susceptibility assay of AD1002. This assay was conducted as described in Materials and methods in the presence of the indicated concentrations of fluconazole and KN20. (B) Disk drug susceptibility assay of AD1002. This assay was conducted, as described in Materials and methods for Example 4, in the absence or presence of 5 μg/ml fluconazole, with (1) KN0 (12 nanomole), (2) KN20 (12 nanomole) or (0) control amounts of DMSO applied to the disks. (C) Checkerboard drug susceptibility assay of ATCC 10261. This assay was conducted, as described in Material and methods for Example 4, in the presence of the indicated concentrations of fluconazole and KN20. D indicates cell death as measured by a failure to recover any colony forming units when samples from microtitre plate wells were cultured on solid YPD medium.
as §1

S. cerevisiae AD1-8u^− = assay: MIC microdilution test, parental strain; format: cell-based; conditions: Saccharomyces cerevisiae; AD1-8u^− parental strain; 30° C., 48 h, pH 7.0
Experimental: (§2) The MICs of antifungal agents for S. cerevisiae cells were determined by a microdilution test based on the macrodilution reference method of the National Committee for Clinical Laboratory Standards. Cells (10 μl cell suspension, 2×10^5 cells/ml) were inoculated into 90 μl CSM-URA, buffered with 10 mM 2-(N-morpholino)ethanesulfonic acid (MES) and 18 mM N-2-hydroxyethylpiperazine-N′-2-ethanesulfonic acid (HEPES), pH 7.0 and containing 0.67% (w/v) yeast nitrogen base (YNB) in microtitre plate wells. For the uracil-requiring strain AD1-8u^− the medium was supplemented with 0.02% (w/v) uridine. The wells contained, in […], doubling dilutions of antifungal agents (final concentrations: fluconazole, 40-0.078 μg/ml; itraconazole and ketoconazole, 8-0.016 μg/ml). The microtitre plates were incubated at 30° C. for 48 h with shaking and then the growth of cells in individual wells (OD590) was measured with a microplate reader (EL 340, Bio-Tek, Winooski, Vt.). The MIC80 was the lowest concentration of drug that inhibited growth yield by at least 80% compared to a no-drug control.

AD-PDR5 (Pdr5p) [2] = assay: MIC in liquid microdilution assay, AD-PDR5; format: cell-based, S. cerevisiae; conditions: Saccharomyces cerevisiae
Experimental: as §2

AD-CDR1 (Cdr1p) = assay: MIC in liquid microdilution assay, AD-CDR1; format: cell-based, S. cerevisiae; conditions: Saccharomyces cerevisiae
Experimental: as §2

AD-pABC3 = assay: MIC in liquid microdilution assay, AD-pABC3 control; format: cell-based, S. cerevisiae; conditions: Saccharomyces cerevisiae; AD-pABC3 negative control strain
Experimental: as §2

AD-PDR5 (Pdr5p) [3] = assay: Disk diffusion assay, AD-PDR5; format: cell-based, S. cerevisiae; conditions: AD-pABC as negative control, 30° C., 48 h
Experimental: The cells were spread on CSM-agar plates and exposed to the drugs or chemicals applied to filter disks and incubated at 30° C. for 48 h. The amounts of individual drugs are given in the Materials and Methods section of Example 3. Rhodamine 6G and rhodamine 123 were dissolved in ethanol and the other antifungals were dissolved in DMSO.
Drug susceptibility was measured using disk assays on CSM-URA plates (containing 1.5% w/v agar). Yeast cells (200 μl ml of 5×10^6 cells/ml) were spread on the plates. 10 μl of drug solution or solvent control were spotted onto sterile Whatman paper disks on the pre-spread plates. The following amounts (nmoles) of drugs were applied to individual disks: fluconazole, 633 (Pfizer Ltd., Sandwich, Kent, United Kingdom); itraconazole, 0.23 (Janssen); miconazole, 0.42 (Janssen); cycloheximide, 0.71 (Sigma); rhodamine 6G, 100 (Sigma, Penrose, Auckland, N. Z.); rhodamine 123, 125 (Sigma); cerulenin 4.5 (Sigma); 5-flucytosine 100 (Sigma); amphotericin B, 97 (E. R. Squibb & Sons, Princeton, N.J.); nystatin 65 (Sigma). Agar plates were incubated at 30° C. for 48 h or until clear growth inhibition zones were visible.

Molecule | chemosensitisation to fluconazole in disk assay [1] | chemosensitisation to fluconazole in disk assay (AD1002) | MIC80 (S. cerevisiae AD1-8u^−) [µg/mL] | MIC (AD-PDR5 (Pdr5p) [2]) [µg/mL] | MIC (AD-CDR1 (Cdr1p)) [µg/mL] | MIC (AD-pABC3) [µg/mL] | resistance/sensitivity in disk diffusion assay (AD-PDR5 (Pdr5p) [3])
D-octapeptide NH2-Asn-Trp-Trp-Lys-Val-Arg-Arg-Arg-CONH2 with a single 4-methoxy-2,3,6-trimethylbenzenesulphonyl (Mtr) substituent on one tryptophan sidechain; Pdr5p inhibitor [KN20] | chemosensitisation | chemosensitises |  |  |  |  | 
OC(Cn1cncn1)(Cn1cncn1)c1ccc(F)cc1F [fluconazole] |  |  | 0.625 (≈ 2.04 µM) | 400 (≈ 1310 µM) | 400 (≈ 1310 µM) | 0.5 (≈ 1.63 µM) | resistances

— US8728797B2, “Yeast membrane protein expression system and its application in drug screening” (priority 2001, dated 2014)
